Assays:
[1] = SN-38 release at lysosomal pH; format: physicochemical; settings: pH 5.3 at 37° C.
[2] = system: PC-3; test: In vitro cytotoxicity, PC-3
Source text: (§3) Cell lines, antibodies, and chemotherapeutics—All human cancer cell lines used in this study were purchased from the American Type Culture Collection.

[3] = system: BxPC-3; test: Cytotoxicity (MTS), Example 7, BxPC-3; format: cell-based, human; settings: BxPC-3, 96 h
Experimental: One day prior to adding the ADC, cells were harvested from tissue culture and plated into 96-well plates at 2000 cells per well. […] Plates were incubated at 37° C. for 96 h. […] Growth inhibition was measured as a percent of growth relative to untreated cells using Microsoft Excel and Prism software (non-linear regression to generate sigmoidal dose response curves which yield IC50-values).

[4] = system: COLO 205; test: In vitro cytotoxicity, COLO 205
Source text: as §3

[5] = system: MDA-MB-231; settings: mouse, in vivo
[6] = system: BxPC-3; test: In vitro cytotoxicity, BxPC-3
Source text: as §3

[7] = system: human pancreatic adenocarcinoma xenograft model (BxPC-3); test: Clinically-relevant dosing schemes, BxPC-3 xenograft; format: in vivo, mouse; settings: for TTP: untreated 5.0±2.3
Source text: (§1) In Vivo Therapeutic Studies—NCr female athymic nude (nu/nu) mice, 4-8 weeks old, were purchased from Taconic Farms (Germantown, NY). NCI-N87 gastric tumor xenografts were established by harvesting cells from tissue culture and making a final cell suspension 1:1 in matrigel (BD Bioscience; San Jose, CA), with each mouse receiving a total of 1×10^7 cells s.c. in the right flank. For BxPC-3. xenografts of 1 g were harvested, and a tumor suspension made in HBSS to a concentration of 40% tumor w/v. This suspension was mixed 1:1 with matrigel for a final tumor suspension of 20% w/v. […] For IHC, tumors were allowed to grow to approximately 0.5 cm^3 before the mice were euthanized and the tumors removed, formalin-fixed and paraffin-embedded. For therapy studies, mice were randomized into treatment groups and therapy begun when tumor volumes were approximately 0.25 cm^3.
(§2) Mice were euthanized and deemed to have succumbed to disease once tumors grew to greater than 1.0 cm^3 in size. […] Time to progression (TTP) was determined as time post-therapy initiation when the tumor grew more than 20% in size from its nadir.
A human dose of 8 mg/kg translates to a murine dose of 98.4 mg/kg, or approximately 2 mg to a 20 g mouse.

[8] = system: metastatic PDC
[9] = system: triple-negative breast cancer
[10] = system: SK-MES-1; test: In vitro cytotoxicity, SK-MES-1
Source text: as §3

[11] = system: NCI-N87 human gastric tumor xenografts; test: Dose schedules and chronic dosing, NCI-N87 xenograft; format: in vivo, mouse
Source text: as §1, §2
A similar dose schedule experiment was performed in mice bearing NCI-N87 human gastric tumor xenografts (not shown). […] Likewise, in terms of overall survival, while all three dose schedules provided a significant survival benefit when compared to untreated control (P<0.0001), there were no differences between any of these three different schedules.
In all, four treatment cycles were administered to the animals.

[12] = Tolerability in Cynomolgus monkeys; format: in vivo, Macaca fascicularis
Experimental: Tolerability studies were performed in Cynomolgus monkeys (Macaca fascicularis; 2.5-4 kg male and female) by SNBL USA, Ltd. Animals were implanted subcutaneously with different human cancer cell lines.
Dosages, times, and number of monkeys bled for evaluation of possible hematologic toxicities and serum chemistries are described in the Results.

[13] = target: T1, Trop-2 (Homo sapiens, UniProt P09758); test: Trop-2 ELISA, human; format: binding; set-up: purchased Sino Biological, Inc. 10428-H09H
T1 sequence (P09758 27-323): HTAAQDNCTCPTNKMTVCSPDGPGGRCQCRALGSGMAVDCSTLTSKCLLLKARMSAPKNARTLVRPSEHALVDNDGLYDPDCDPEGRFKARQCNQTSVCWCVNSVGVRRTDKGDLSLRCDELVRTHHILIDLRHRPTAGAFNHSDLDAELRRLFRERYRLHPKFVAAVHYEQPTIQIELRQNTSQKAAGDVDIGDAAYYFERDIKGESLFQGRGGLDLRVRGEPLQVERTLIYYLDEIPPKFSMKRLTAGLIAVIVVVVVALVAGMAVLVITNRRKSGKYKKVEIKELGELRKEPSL
Experimental: Trop-2 ELISA—Recombinant human Trop-2 with a His-tag (Sino Biological, Inc., Bejing, China; Cat #10428-H09H) and recombinant mouse Trop-2 with a His-Tag (Sino Biological, Inc., Cat #50922-M08H) were plated onto Ni-NTA Hissorb strips (Qiagen GmbH Cat #35023) at 1 μg for 1 h at room temperature. The plate was washed four times with PBS-Tween (0.05%) wash buffer. Serial dilutions of hRS7 were made in 1% BSA-PBS dilution buffer to a test range of 0.1 ng/mL to 10 μg/mL. The plates were then incubated for 2 h at room temperature before being washed four times followed by the addition of a peroxidase conjugated secondary antibody (goat anti-human, Fc fragment specific; Jackson Immunoresearch Cat #109-036-098). After a 45-min incubation, the plate was washed and a substrate solution (o-phenylenediamine dihydrochloride (OPD); Sigma, Cat #P828) added to all the wells. Plates were incubated in the dark for 15 min before the reaction was stopped with 4N sulfuric acid. The plates were read at 450 nm on Biotek ELX808 plate reader. Data were analyzed and graphed using Prism GraphPad Software (v4.03) (Advanced Graphics Software, Inc.; Encinitas, CA).

## IMMU-132
[1]
  time for release of 50% of the SN-38: ~13 h
[2]
  IC50: 4.24 nM
[3]
  IC50: 5.8 nM
[4]
  IC50: 1.95 nM
[5]
  specific therapeutic effects: specific therapeutic effects with IMMU-132 were not achieved
[6]
  IC50: 4.03 nM
[7]; all three dosing schemes of fractionated 2 mg
  anti-tumor effect vs untreated: significant anti-tumor effect
[7]; eight doses of 0.25 mg
  TTP: 31.7 ± 14.5 days
[7]; two doses of 1 mg (days 1 and 15)
  TTP: 22.4 ± 10.1 days
[8]; 8/13 PDC patients
  patients with long-term stable disease: 62%
[8]; 8.0 weeks estimated from last prior therapy
  median TTP, CT assessable patients: 12.7 wks
[8]; 13 assessable patients
  stable disease, number of patients: 8
[8]; case
  response: stable disease by CT RECIST criteria
[8]; case, from 15885 U/mL
  CA19-9 after treatment: 4418 U/mL
[8]; in vivo
  Alopecia (Grades 1-2), patients: 5 of 9
  Grade 3-4 nausea or vomiting: no patient
  Phase 2 dose: 8 to 10 mg/kg
  median TTP, all 14 patients: 11.9 wks
  neutropenia ≥G3: 33%
  patients with Grade 3 diarrhea: Two
  progressive disease by RECIST, patients: Five
[8]; person, 8 mg/kg days 1 and 8 of 21 day cycle
  maximum decline in CA19-9: 72%
[9]; after 3 therapy cycles, 12 mg/kg then 9 mg/kg
  decrease in sum of long diameter of target lesions: 43%
[9]; first response assessment
  response: partial response by RECIST criteria
[10]
  IC50: 23.1 nM
[11]; 0.5 mg once a week for two weeks, one week off, four cycles
  TTP: 15.7 ± 11.1 days
[11]; all dosing scheme evaluations, body weight
  treatment-related toxicities: no treatment-related toxicities were observed
[11]; chronic dosing
  increase in median survival vs control ADC: 3 fold
[11]; chronic dosing, four cycles
  median survival: 63 days
[12]; 2x0.96 mg SN-38/kg
  serum chemistries: No abnormal values
  weight loss: ≤ 7.3%
[12]; 2x0.96 mg SN-38/kg, day 11
  histopathology, microscopic changes: minimal to moderate
[12]; 2x0.96 mg/kg, transient decreases, listed as sacituzumab govitecan
  blood counts: the values did not fall below normal ranges
[12]; 2x1.92 mg SN-38/kg, gastrointestinal complications and bone marrow suppression
  deaths: 1
[12]; cynomolgus monkey, in vivo
  extrapolated human dose: ~0.3 mg/kg/dose

## hRS7 IgG
[13]
  Kd: 0.3 nM

Reference: patent US20240352145A1, “EFFICACY OF ANTI-TROP-2-SN-38 ANTIBODY DRUG CONJUGATES FOR THERAPY OF TUMORS RELAPSED/REFRACTORY TO CHECKPOINT INHIBITORS” (Immunomedics, Inc., priority 2016, published 2024)
